According to patent publication US11840686B2, “Modulation of prekallikrein (PKK) expression” (Ionis Pharmaceuticals, Inc., priority 2013, dated 2023):
Strand notation (5' to 3'): a small letter for the sugar, then the base; units joined by * are phosphorothioate-linked, units joined directly phosphodiester-linked; [ ] holds rarer units or linkages, { } end groups; capitals alone tell only the bases. e = 2'-O-(2-methoxyethyl) (MOE); [5mC] = 5-methylcytosine; d = 2'-deoxy (DNA)

Experiments:
[1] = test system: human PKK mRNA; assay: Antisense inhibition of human PKK mRNA in HepaRG cells, 1,000 nM, MOE/deoxy/cEt oligonucleotides (Example 3); format: cell-based
Method in brief: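 HepaRG cells at 20,000 per well electroporated with 1,000 nM 16-mer MOE/cEt/deoxy gapmers (phosphorothioate, 5-methylcytosine). After about 24 h, PKK mRNA measured by qRT-PCR with primer probe set RTS3454, normalized to RIBOGREEN total RNA. Reported as percent inhibition versus untreated cells.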

[2] = test system: mouse PKK mRNA; assay: Antisense inhibition of murine PKK mRNA in mouse primary hepatocytes (Example 9); format: cell-based; details: Cytofectin; for % inhibition of mouse PKK mRNA levels: approx. 24 hours
Description: Antisense oligonucleotides targeting a murine PKK nucleic acid were designed and tested for their effects on PKK mRNA in vitro. Cultured mouse primary hepatocytes at a density of 10,000 cells per well were transfected using Cytofectin reagent with 12.5 nM, 25.0 nM, 50.0 nM, 100.0 nM, and 200.0 nM of antisense oligonucleotide. After a treatment period of approximately 24 hours, RNA was isolated from the cells and mouse PKK mRNA levels were measured by quantitative real-time PCR using the murine primer probe set RTS3313 (forward sequence […], designated herein as SEQ ID NO: 2228; reverse sequence […], designated herein as SEQ ID NO: 2229; probe sequence […], designated herein as SEQ ID NO: 2230). PKK mRNA levels were adjusted according to total RNA content, as measured by RIBOGREEN.
The chimeric antisense oligonucleotides were designed as 5-10-5 MOE gapmers. The gapmers are 20 nucleotides in length, wherein the central gap segment is comprised of ten 2′-deoxynucleosides and is flanked on both sides (in the 5′ and 3′ directions) by wings comprising 5 nucleosides each. Each nucleoside in the 5′ wing segment and each nucleoside in the 3′ wing segment has a 2′-O-methoxyethyl modification. The internucleoside linkages throughout each gapmer are phosphorothioate linkages. All cytosine residues throughout each gapmer are 5-methylcytosines.
ISIS 482584 is targeted to SEQ ID NO: 11 (GENBANK Accession No. NM_008455.2) and has a target start site of 1586 and a target stop site of 1605. “Target start site” indicates the 5′-most nucleotide to which the gapmer is targeted. “Target stop site” indicates the 3′-most nucleotide to which the gapmer is targeted.

[3] = test system: human PKK mRNA; assay: Human PKK mRNA in liver of human KLKB1 transgenic mice (Example 7); format: in vivo; details: transgenic mice
Method in brief: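 Transgenic mice carrying a 37,390 bp human KLKB1 fragment dosed subcutaneously twice weekly for 3 weeks at 2.5, 5.0, 10 or 20 mg/kg/week; PBS controls. Liver harvested 48 h after the last dose. Human PKK mRNA measured by real-time PCR and expressed as % inhibition versus PBS.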

[4] = Tolerability / clinical observation of cynomolgus monkeys (Example 8); format: in vivo, cynomolgus monkey; details: primates, Example 8
Description: Cynomolgus monkeys were treated with ISIS antisense oligonucleotides selected from studies described above. Antisense oligonucleotide efficacy and tolerability were evaluated. The human antisense oligonucleotides tested are cross-reactive with the rhesus genomic sequence (GENBANK Accession No. NW_001118167.1 truncated from nucleotides 2358000 to 2391000 and designated herein as SEQ ID NO: 18).
During the study period, the monkeys were observed a minimum of once daily for signs of illness or distress. Any animal experiencing more than momentary or slight pain or distress due to the treatment, injury or illness was promptly reported to the responsible veterinarian and the Study Director. Any animal in poor health or in a possible moribund condition was identified for further monitoring and possible euthanasia. […] The protocols described in the Example were approved by the Institutional Animal Care and Use Committee (IACUC).

Q: With “531231 (eT*eA*eT*e[5mC]*eA*d[5mC]*dT*dG*dT*dA*d[5mC]*dT*dA*dG*dT*eT*eT*e[5mC]*e[5mC]*eT) [compound 531231]” as the substance, how does the “% inhibition” value ([1]; HepaRG cells, 1,000 nM antisense oligonucleotide, Table 29) read?
A: 46%

Q: And the “% inhibition” value ([1]; HepaRG cells, electroporation with 1,000 nM antisense oligonucleotide, approx. 24 hours, PKK mRNA by RT-PCR (RTS3454), relative to untreated control cells, Table 25 experiment)?
A: 19%

Q: What about the “% inhibition” value ([1]; HepaRG cells, electroporation with 1,000 nM antisense oligonucleotide, approx. 24 hours, PKK mRNA by RT-PCR (RTS3454), relative to untreated control cells, Table 26 experiment) of the same substance?
A: 42%

Q: And the “% inhibition” value ([1]; HepaRG cells, electroporation with 1,000 nM antisense oligonucleotide, approximately 24 hours, primer probe set RTS3454, relative to untreated control cells, experiment of Table 23)?
A: 16%

Q: And the “% inhibition” value ([1]; HepaRG cells, electroporation with 1,000 nM antisense oligonucleotide, approximately 24 hours, primer probe set RTS3454, relative to untreated control cells, experiment of Table 24)?
A: 0%

Q: What about the “% inhibition” value ([1]; PKK mRNA, HepaRG cells, 1,000 nM antisense oligonucleotide, Table 31) of the same substance?
A: 48%

Q: What about the “% inhibition” value ([1]; Table 21 experiment, HepaRG cells, electroporation with 1,000 nM antisense oligonucleotide, approx. 24 hours, PKK mRNA by RT-PCR (RTS3454), relative to untreated control cells) of the same substance?
A: 62%

Q: What about the “% inhibition” value ([1]; Table 22 experiment, HepaRG cells, electroporation with 1,000 nM antisense oligonucleotide, approx. 24 hours, PKK mRNA by RT-PCR (RTS3454), relative to untreated control cells) of the same substance?
A: 75%

Q: What about the “% inhibition” value ([1]; Table 27, HepaRG cells, 1,000 nM antisense oligonucleotide, human PKK mRNA) of the same substance?
A: 72%

Q: What about the “% inhibition” value ([1]; Table 28, HepaRG cells, 1,000 nM antisense oligonucleotide, human PKK mRNA) of the same substance?
A: 46%

Q: And the “% inhibition” value ([1]; Table 30, human PKK mRNA, HepaRG cells, 1,000 nM antisense oligonucleotide)?
A: 46%

Q: For “ISIS 482584: 5-10-5 MOE gapmer targeting murine PKK, GGCATATTGGTTTTTGGAAT; SEQ ID NO: 2244 (antisense eG*eG*e[5mC]*eA*eT*dA*dT*dT*dG*dG*dT*dT*dT*dT*dT*eG*eG*eA*eA*eT)”, which “% inhibition of mouse PKK mRNA levels” value ([2]; 12.5 nM) is on record?
A: 0%

Q: What about the “% inhibition of mouse PKK mRNA levels” value ([2]; 25.0 nM) of the same substance?
A: 47%

Q: What about the “% inhibition of mouse PKK mRNA levels” value ([2]; 50.0 nM) of the same substance?
A: 27%

Q: And the “% inhibition of mouse PKK mRNA levels” value ([2]; 100.0 nM)?
A: 60%

Q: What about the “% inhibition of mouse PKK mRNA levels” value ([2]; 200.0 nM) of the same substance?
A: 82%

Q: And the IC50 ([2]; 12.5-200.0 nM, ~24 h, read-out: half maximal inhibitory concentration (IC50))?
A: 84 nM

Q: For “Tes Ges mCes Aes Aes Gds Tds mCds Tds mCds Tds Tds Gds Gds mCds Aes Aes Aes mCes Ae [ISIS 546254]”, which “human PKK mRNA inhibition” value ([3]; 2.5 mg/kg/week s.c. twice a week for 3 weeks) is on record?
A: 31%

Q: What about the “human PKK mRNA inhibition” value ([3]; 5.0 mg/kg/week s.c. twice a week for 3 weeks) of the same substance?
A: 55%

Q: What about the “human PKK mRNA inhibition” value ([3]; 10 mg/kg/week s.c. twice a week for 3 weeks) of the same substance?
A: 84%

Q: And the “human PKK mRNA inhibition” value ([3]; 20 mg/kg/week s.c. twice a week for 3 weeks)?
A: 83%

Q: What about the “tolerability in primates” value [4] of the same substance?
A: tolerable in primates
